Tested on: LG0703-F948-PDC complex spheroid viability
Assay: Anticancer human tumor LG0703-F948-PDC patient-derived lung adenocarcinoma cell line growth inhibition
Conditions: for IC50: curve of first compound; for viability, T/C: stronger effect = lower value
Procedure, shortened: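 Multicellular complex spheroids of tumor cells with human endothelial cells (HUVEC) and mesenchymal stem cells; the LSD1 inhibitor iadademstat was combined with standard-of-care or investigational agents. Top concentration at or near clinical Cmax, half-log dilutions; final DMSO ≤0.25%.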

[1] = second compound 0.1 µM, first compound 0.0316 µM
[2] = second compound 0.1 µM, first compound 0.1 µM
[3] = second compound 0.1 µM, first compound 0.316 µM
[4] = second compound 0.1 µM, first compound 1 µM
[5] = second compound 0.1 µM, first compound 3.16 µM
[6] = second compound 0.1 µM, first compound 10 µM
[7] = second compound 0.316 µM, first compound 0.0316 µM
[8] = second compound 0.316 µM, first compound 0.1 µM
[9] = second compound 0.316 µM, first compound 0.316 µM
[10] = second compound 0.316 µM, first compound 1 µM
[11] = second compound 0.316 µM, first compound 3.16 µM
[12] = second compound 0.316 µM, first compound 10 µM
[13] = second compound 1 µM, first compound 0.0316 µM
[14] = second compound 1 µM, first compound 0.1 µM
[15] = second compound 1 µM, first compound 0.316 µM
[16] = second compound 1 µM, first compound 1 µM
[17] = second compound 1 µM, first compound 3.16 µM
[18] = second compound 1 µM, first compound 10 µM
[19] = second compound 3.16 µM, first compound 0.0316 µM
[20] = second compound 3.16 µM, first compound 0.1 µM
[21] = second compound 3.16 µM, first compound 0.316 µM
[22] = second compound 3.16 µM, first compound 1 µM
[23] = second compound 3.16 µM, first compound 3.16 µM
[24] = second compound 3.16 µM, first compound 10 µM
[25] = second compound 10 µM, first compound 0.0316 µM
[26] = second compound 10 µM, first compound 0.1 µM
[27] = second compound 10 µM, first compound 0.316 µM
[28] = second compound 10 µM, first compound 1 µM
[29] = second compound 10 µM, first compound 3.16 µM
[30] = second compound 10 µM, first compound 10 µM
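Further: spheroids exposed to agents for seven days before readout.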
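Wherever viability, T/C is given: 100% = DMSO vehicle control wells as normalization base.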

Compound | IC50 (second compound 0.1 µM) [µM] | IC50 (second compound 0.316 µM) [µM] | IC50 (second compound 1 µM) [µM] | IC50 (second compound 3.16 µM) [µM] | IC50 (second compound 10 µM) [µM] | viability, T/C [1] [%] | viability, T/C [2] [%] | viability, T/C [3] [%] | viability, T/C [4] [%] | viability, T/C [7] [%] | viability, T/C [8] [%] | viability, T/C [9] [%] | viability, T/C [10] [%] | viability, T/C [13] [%] | viability, T/C [14] [%] | viability, T/C [15] [%] | viability, T/C [16] [%] | viability, T/C [19] [%] | viability, T/C [20] [%] | viability, T/C [21] [%] | also measured
CC(C)c1c(-c2ccccc2)nc2c(C#N)c[nH]n2c1=O + NC1CCC(NC2CC2c2ccccc2)CC1 | > 10 | > 10 | > 10 | > 10 | > 10 | 101 | 95.8 | 85.5 | 90.1 | 98.1 | 104 | 97.4 | 95 | 110 | 102 | 106 | 83 | 106 | 108 | 108 | viability, T/C [5]: 102%; viability, T/C [6]: 78.3%; viability, T/C [11]: 101%; viability, T/C [12]: 85.9%; viability, T/C [17]: 98.4%; viability, T/C [18]: 89.1%; viability, T/C [22]: 105%; viability, T/C [23]: 107%; viability, T/C [24]: 94.1%; viability, T/C [25]: 110%; viability, T/C [26]: 119%; viability, T/C [27]: 113%; viability, T/C [28]: 105%; viability, T/C [29]: 100%; viability, T/C [30]: 85.8%
CC1COCCN1c1cc(-c2ccnn2C)c2ccnc(-c3ccn[nH]3)c2n1 (stereo not given) + NC1CCC(NC2CC2c2ccccc2)CC1 | 0.0438 | 0.0485 | 0.0426 | 0.0711 | 0.0425 | 52.8 | 37.5 | 25.5 | 13.5 | 54.6 | 36.2 | 26.2 | 16 | 60.2 | 34.7 | 21.6 | 17.6 | 77 | 38.1 | 24.2 | viability, T/C (second compound 0.1 µM, first compound 0.00316 µM): 76.3%; viability, T/C (second compound 0.1 µM, first compound 0.01 µM): 71.6%; viability, T/C (second compound 0.316 µM, first compound 0.00316 µM): 69.9%; viability, T/C (second compound 0.316 µM, first compound 0.01 µM): 79.5%; viability, T/C (second compound 1 µM, first compound 0.00316 µM): 99.8%; viability, T/C (second compound 1 µM, first compound 0.01 µM): 72.4%; viability, T/C (second compound 3.16 µM, first compound 0.00316 µM): 78.8%; viability, T/C (second compound 3.16 µM, first compound 0.01 µM): 85.8%; viability, T/C [22]: 13.9%; viability, T/C (second compound 10 µM, first compound 0.00316 µM): 82.3%; viability, T/C (second compound 10 µM, first compound 0.01 µM): 78.9%; viability, T/C [25]: 55.6%; viability, T/C [26]: 30.1%; viability, T/C [27]: 21.1%; viability, T/C [28]: 11.5%
COc1ccc([C@@H](O)c2cc(-c3ncnc4cc(N5CCOCC5)ccc34)c(F)cc2Cl)nn1 + NC1CCC(NC2CC2c2ccccc2)CC1 | 1.16 | 1.17 | 1.23 | 1.17 | 1.03 | 100 | 97.4 | 88.4 | 54.5 | 92.3 | 110 | 87.3 | 54.8 | 110 | 97.4 | 84 | 61.8 | 112 | 95.3 | 89.6 | viability, T/C [5]: 17.4%; viability, T/C [6]: 3.58%; viability, T/C [11]: 18.7%; viability, T/C [12]: 4.54%; viability, T/C [17]: 16.1%; viability, T/C [18]: 3.83%; viability, T/C [22]: 56.5%; viability, T/C [23]: 16.7%; viability, T/C [24]: 3.27%; viability, T/C [25]: 118%; viability, T/C [26]: 107%; viability, T/C [27]: 92.4%; viability, T/C [28]: 52.2%; viability, T/C [29]: 12.4%; viability, T/C [30]: 3.19%
